Test results: patent US20030114441A1, “Heterocyclic anti-epileptogenic agents and methods of use thereof” (Queen's University at Kingston, priority 2001, published 2003)

How the values were obtained:
[1] = system: pilocarpine-induced seizures; assay: Pilocarpine assay (seizure model); assay type: in vivo, adult male Sprague-Dawley rats; conditions: 100 mg/kg i.p., 20 min before pilocarpine hydrochloride 350 mg/kg i.p.; 30 minute observation
Description: A seizure model is performed using adult male Sprague-Dawley rats in accordance with the guidelines of the Canada Council on Animal Care and under the supervision of the Queen's University Animal Ethics Committee. This test procedure was adopted from previous work by Turski et al. (1984) Brain Res. 321:237. The test compounds are administered at 100 mg/kg by intraperitoneal (i.p.) injection. Seizures are induced 20 minutes afterwards by i.p. administration of pilocarpine hydrochloride (350 mg/kg). Protection is defined as the absence of clonic spasms over a 30 minute observation period after pilocarpine administration.

[2] = system: PTZ-induced seizure; assay: Subcutaneous pentylenetetrazole (PTZ)-induced seizure model; assay type: in vivo, male Carworth Farms #1 mice or male Sprague-Dawley rats; set-up: key to PTZ 0.5 hr / PTZ 4 hr: — = no activity; conditions: for PTZ 0.5 hr / PTZ 4 hr: i.p. at 300, 100 and 30 mg/kg; for PTZ 0.5 hr: PTZ 0.5 hr after administration; for PTZ 4 hr: PTZ 4 hr after administration
Description: The MES and PTZ assays were performed by the Anticonvulsant Drug Development (ADD) Program in the Epilepsy Branch of the NIH (see, e.g., Stables and Kupferberg (1997) The NIH anticonvulsant Drug Development (ADD) Program: Preclinical Anticonvulsant Screening Project, Libby & Sons). All compounds were tested with either male Carworth Farms #1 mice or male Sprague-Dawley rats. Each test compound was administered via an i.p. injection at 300, 100, and 30 mg/kg. In the subcutaneous pentylenetetrazole (PTZ)-induced seizure model, seizures are induced 0.5 and 4 hrs after test compound administration by i.p. injection of PTZ (85 mg/kg in mice and 70 mg/kg in rats). Protection is defined as the inhibition of clonic spasms over a 30 min observation period.

[3] = system: MES-induced seizure; assay: Maximal electroshock seizure test (MES); assay type: in vivo, male Carworth Farms #1 mice or male Sprague-Dawley rats; set-up: key to MES 0.5 hr / MES 4 hr: — = no activity; conditions: for MES 0.5 hr / MES 4 hr: i.p. at 300, 100 and 30 mg/kg; for MES 0.5 hr: stimulus 0.5 hr after administration; for MES 4 hr: stimulus 4 hr after administration
Description: The MES and PTZ assays were performed by the Anticonvulsant Drug Development (ADD) Program in the Epilepsy Branch of the NIH (see, e.g., Stables and Kupferberg (1997) The NIH anticonvulsant Drug Development (ADD) Program: Preclinical Anticonvulsant Screening Project, Libby & Sons). All compounds were tested with either male Carworth Farms #1 mice or male Sprague-Dawley rats. Each test compound was administered via an i.p. injection at 300, 100, and 30 mg/kg. For the maximal electroshock seizure test (MES), corneal electrodes primed with a drop of electrolyte solution (0.9% NaCl) are applied to the eyes of the animal and an electrical stimulus (50 mA for mice, 150 mA for rats; 60 Hz) is delivered for 0.2 seconds at 0.5 and 4.0 hours after test compound administration. The animals are restrained by hand and are released at the moment of stimulation in order to permit observation of the seizure.

[4] = system: spontaneous recurrent seizures; assay: Spontaneous recurrent seizures (SRS) model of epilepsy; assay type: in vivo, adult male Sprague-Dawley rat; conditions: 20 mg/kg/day i.v. for 10 day
Description: The “spontaneous recurrent seizures” (SRS) model of epilepsy is used to evaluate candidate compounds in a model for Phase 1 epileptogenesis (see, e.g., Mello, E. et al., Epilepsia (1993) 34:985; Cavalheiro, J. et al., Epilepsia (1991) 32:778). In the SRS model, an adult male Sprague-Dawley rat (c. 260 g) is given pilocarpine by injection (380 mg/kg i.p.). Within 25 minutes, the animal enters status epilepticus, which lasts for 3 hours, and then diazepam is administered to stop seizures. The rat is allowed to spontaneously recover and is given food and water ad lib. and maintained on a 12 hour/12 hour light/dusk cycle. Beginning on about day 13-15, the rats develop spontaneous recurrent seizures, which occur at the rate of about 4-5 per week. The rats are videotaped 8 hours per day 5 days per week, and the videotapes are reviewed for behavioral seizures (including head nodding, forelimb clonus, and rearing), which are counted. The animals are watched for two months, permitting evaluation of a sufficient number of seizures. An experimental compound for evaluation can be administered at either of two times: Time 1, on Day 1, after the cessation of status epilepticus but before the onset of SRS; or Time 2, on Day 30, when the rats have been experiencing SRS for about two weeks. […]

[5] = @ 100 mg, i.p., 4 hr after administration

Row | Compound | Pilocarpine, activity in words [1] | PTZ 0.5 hr [2] | PTZ 4 hr [2] | MES 0.5 hr [3] | MES 4 hr [3] | other results
1 | COC(=O)CC(c1ccc2ccccc2n1)N(Cc1ccccc1)Cc1ccccc1 (stereo not shown) | Inactive | — | — | — |  | MES 4 hr, fraction of animals [3, 5]: 1/3 @ 100 mg
2 | O=C(CC(c1ccc2ccccc2n1)N(Cc1ccccc1)Cc1ccccc1)N(Cc1ccccc1)Cc1ccccc1 (stereo not shown) | Min. Active | — | — | — | — | 
3 | COC(=O)CC(NC(C)c1ccccc1)c1cc2ccccc2o1 (stereo not shown) | Active |  |  | — | — | PTZ 4 hr, fraction of animals [2, 5]: 1/5 @ 100 mg; PTZ 0.5 hr, fraction of animals ([2]; @ 300 mg, i.p., 0.5 hr after administration): 2/5 @ 300 mg
4 | COC(=O)CC(NC(C)c1ccccc1)c1cnc2ccccc2c1 (stereo not shown) | Min. Active | — | — | — | — | 
5 | COC(=O)CC(NC(C)c1ccccc1)c1ccc2ccccc2n1 (stereo not shown) | Active | — | — | — | — | 
6 | COC(=O)CC(NC(C)c1ccccc1)c1ccc2c(c1)cc(C)n2S(=O)(=O)c1ccccc1 (stereo not shown) | Active |  |  |  |  | 
7 | NC(CC(=O)O)c1ccc2c(c1)OCCO2 (stereo not shown) | Min. Active |  |  |  |  | 
8 | CC(NC(CC(=O)O)c1ccc2ccccc2n1)c1ccccc1 (stereo not shown) | Active |  |  |  |  | 
9 | COC(=O)CC(Nc1ccccc1OC)c1ccc2ccccc2n1 (stereo not shown) | Active |  |  |  |  | 
10 | COC(=O)CC(Nc1ccccc1OC)c1cc2ccccc2nc1Cl (stereo not shown) | Min. Active |  |  |  |  | 
11 | NC(CC(=O)O)c1cccs1 (stereo not shown) | Active | — | — | — | — | 
12 | O=C1NC(=O)C(c2ccccc2)(c2ccccc2)N1 [phenytoin] |  |  |  |  |  | Preventing the onset of seizures (Time 1) ([4]; Time 1 (Day 1, after status epilepticus, before onset of SRS)): ineffective; Effective at decreasing seizure frequency by 50% or more (Time 2) ([4]; Time 2 (Day 30, established SRS)): 75%
